Key:
[1] = system: ob/ob mice; experiment: Serum glucose, triglycerides, free fatty acids and insulin in ob/ob mice; assay type: in vivo; settings: male ob/ob mice, 100 mg/kg daily oral doses for two weeks
Protocol: Ob/ob mice have a defect in the gene for leptin, a protein involved in appetite regulation and energy metabolism, and are hyperphagic, obese, and insulin resistant. They develop hyperglycemia and fatty liver.
(§1) Male ob/ob mice were divided into four treatment groups comprising six mice each, and given daily oral doses of Vehicle (1% hydroxypropylmethylcellulose) or 100 mg/kg Compound CT, Compound CV, or Compound BI (a positive control) for two weeks. Blood samples were collected form the retro-orbital sinus and processed for serum chemistry measurements.

[2] = system: ob/ob mice; experiment: Serum ALT and AST in ob/ob mice (animal model for NASH); assay type: in vivo; settings: for ALT ± SD / AST ± SD: male ob/ob mice, 100 mg/kg daily oral doses for two weeks, serum
Protocol: as §1
Obese ob/ob mice develop chronic inflammatory fatty liver disease and are considered to be an animal model for nonalcoholic steatohepatitis (NASH), a condition which can lead toward progressive cirrhosis and liver dysfunction. In NASH, fat accumulation increases the susceptibility of the liver to inflammatory injury. One characteristic sign of NASH in patients is, in the absence of viral infection or alcoholism, elevated levels in serum of enzymes that are released from damaged hepatocytes, e.g. alanine aminotransferase (ALT) and Aspartate-aminotransferase (AST). These enzymes are elevated in ob/ob mice as a consequence of fatty liver and secondary inflammation. In Table 3, ALT and AST in serum samples from mice treated with Compound CT, Compound CV, and Compound BI are shown, as are enzyme levels in serum from control ob/ob mice treated only with vehicle. Treatment with Compound CT, Compound CV, and Compound BI reduced serum ALT and AST versus vehicle-treated ob/ob mice.

Cc1cccc(C)c1COc1cccc(C(=O)CCC(=O)O)c1 [Compound BI, 4-(3-(2,6-Dimethylbenzyloxy)phenyl)-4-oxobutyric acid, reference compound]
Free Fatty Acids ± SD [1]: 874 ± 74 µM
Glucose ± SD [1]: 180 ± 19 mg/dL
Insulin ± SD [1]: 1.1 ± 0.2 ng/mL
Triglycerides ± SD [1]: 58 ± 2 mg/dL
ALT ± SD [2]: 330 ± 40 U/L
AST ± SD [2]: 217 ± 24 U/L
serum ALT and AST versus vehicle-treated ob/ob mice (in words) [2]: reduced

Cc1cccc(C)c1COc1cccc(CC(=O)NO)c1 [Compound CT, N-Hydroxy-2-[3-(2,6-dimethylbenzyloxy)phenyl]acetamide]
Free Fatty Acids ± SD [1]: 894 ± 55 µM
Glucose ± SD [1]: 131 ± 21 mg/dL
Insulin ± SD [1]: 3.1 ± 0.9 ng/mL
Triglycerides ± SD [1]: 68 ± 6 mg/dL
ALT ± SD [2]: 230 ± 59 U/L
AST ± SD [2]: 170 ± 23 U/L
serum ALT and AST versus vehicle-treated ob/ob mice (in words) [2]: reduced

Cc1cccc(C)c1COc1cccc(CC(=O)NCCO)c1 [Compound CV, N-(2-Hydroxyethyl)-2-[3-(2,6-dimethylbenzyloxy)phenyl]acetamide]
Free Fatty Acids ± SD [1]: 1070 ± 60 µM
Glucose ± SD [1]: 164 ± 10 mg/dL
Insulin ± SD [1]: 5.0 ± 0.7 ng/mL
Triglycerides ± SD [1]: 73 ± 5 mg/dL
ALT ± SD [2]: 484 ± 65 U/L
AST ± SD [2]: 318 ± 48 U/L
serum ALT and AST versus vehicle-treated ob/ob mice (in words) [2]: reduced
